This passage reports EC50 results from US11505558B1, “Antiviral heterocyclic compounds” (Enanta Pharmaceuticals, Inc., priority 2019, dated 2022).

SMILES strings stand for the structures. pEC50: −log10 of the molar value.

The assay deals with genotype A, "Long" strain RSV. Nature of the assay: RSV-A assay (CPE, ATPlite readout in Hep-2 cells). The format is cell-based. To be noted: human respiratory syncytial virus, HEp-2, Hep-2 cells, genotype A "Long" strain RSV, MOI 0.1; read-out: Human RSV-A (“Long” strain) EC50. The source says: Hep-2 cells, (originally derived from tumors grown in irradiated-cortisonised weanling rats that had been injected with epidermoid carcinoma tissue from a person's larynx, but later found to be indistinguishable from HeLa cells by PCR DNA analysis), were used for the culturing of genotype A, “Long” strain RSV. Flasks were inoculated with RSV and viral stocks were collected once cytopathic effect (CPE) was greater than […]. Viral stocks in […] sucrose media were snap frozen using liquid nitrogen to increase viral stability. Viral stock titers were quantified by tissue culture infectious dose 50% (TCID50) using 8,000 cells per well and 3-fold viral dilutions across a 96-well plate, cultured for 4 days. Viral stock titers were also quantified by a plaque forming unit assay, as described elsewhere.
Following extensive parameter testing, the final assay is run as follows: Hep-2 cells are seeded into the inner 60 wells of a 96-well plate at 8,000 cells per well in a volume of 50 μL using Growth Media (DMEM without phenol red, 1% L-Glut, 1% Penn/Strep, 1% nonessential amino acids, 10% heat-inactivated FBS). 2-fold serial dilutions of control and test compounds are added to the wells in duplicate in a total volume of 25 μL. Viral stock is then added to the wells at a multiplicity of infection (MOI) of 0.1 in a volume of 25 μL, bringing the total volume of each well to 100 μL. The MOI is calculated using the PFU/mL, or TCID50 if unavailable. Each 96-well plate has a control column of 6 wells with cells and virus but no compound (negative control, max CPE), a column with cells but no compound or virus (positive control, minimum CPE), and a column with no cells or virus or compound (background plate/reagent control). The control wells with cells but no virus are given an additional 25 μL of growth media containing an equal quantity of sucrose as those wells receiving the viral stock in order to keep consistent in media and volume conditions. The outer wells of the plate are filled with 125 μL of moat media (DMEM, 1% Penn/Strep) to act as a thermal and evaporative moat around the test wells. Following a 5-day incubation period, the plates are read using ATPlite (50 uL added per well), which quantifies the amount of ATP (a measure of cell health) present in each well. Assay plates are read using the Envision luminometer. […] EC50 ranges are as follows: A<0.2 μM; B>0.2 μM.
As for `COc1cc(C(=O)NC[C@](O)(c2cc3c(c(-c4ccc(F)cc4)n2)OC[C@]3(C)COC(=O)NC2CC2)C(F)(F)F)ccc1OCCO` (single isomer, unassigned) [Example 7], the pEC50 was less than 6.70.

Turning to `COc1cc(C(=O)NC[C@](O)(c2cc3c(c(-c4ccc(F)cc4)n2)OC[C@]3(C)CNC2CC2)C(F)(F)F)ccc1OCCO` [Example 3], the negative-log EC50 (pEC50) was greater than 6.70.

In the case of `COc1cc(C(=O)NCC(O)(c2cc3c(c(-c4ccc(F)cc4)n2)OC[C@]3(C)CN[C@@H](C)C2CC2)C(F)(F)F)ccc1OCCO` (stereo partly drawn) [Example 4], the negative-log EC50 (pEC50) was greater than 6.70.

For `COc1cc(C(=O)NC[C@](O)(c2cc3c(c(-c4ccc(F)cc4)n2)OC[C@]3(C)CNc2ccccc2)C(F)(F)F)ccc1OCCO` [Example 5], the pEC50 is less than 6.70.

Regarding `COc1cc(C(=O)NC[C@](O)(c2cc3c(c(-c4ccc(F)cc4)n2)OC[C@]3(C)COC(=O)Nc2ccccc2)C(F)(F)F)ccc1OCCO` [Example 6], the negative logarithm of the EC50 (pEC50) is less than 6.70.

For the compound `COc1cc(C(=O)NC[C@](O)(c2cc3c(c(-c4ccc(F)cc4)n2)OC[C@]3(C)CNC(=O)c2ccccc2)C(F)(F)F)ccc1OCCO` [Example 8], the negative logarithm of the EC50 (pEC50) was less than 6.70.

Take `COc1cc(C(=O)NC[C@](O)(c2cc3c(c(-c4ccc(F)cc4)n2)OC[C@]3(C)CNC(=O)C2CC2)C(F)(F)F)ccc1OCCO` [Example 9]: the pEC50 is greater than 6.70.

Consider `COc1cc(C(=O)NC[C@](O)(c2cc3c(c(-c4ccc(F)cc4)n2)OC[C@]3(C)C(=O)NC2CC2)C(F)(F)F)ccc1OCCO` [Example 10], for which the pEC50 was greater than 6.70.

Turning to `COc1cc(C(=O)NC[C@](O)(c2cc3c(c(-c4ccc(F)cc4)n2)OC[C@]3(C)C(N)=O)C(F)(F)F)ccc1OCCO` [Example 11], the pEC50 is greater than 6.70.

`COc1cc(C(=O)NCC(O)(c2cc3c(c(-c4ccc(F)cc4)n2)OC[C@]3(C)C(=O)NS(=O)(=O)C2CC2)C(F)(F)F)ccc1OCCO` (stereo partly drawn) [Example 12]: the pEC50 was less than 6.70.

As for `COc1cc(C(=O)NCC(O)(c2cc3c(c(-c4ccc(F)cc4)n2)OC[C@]3(C)C(=O)O)C(F)(F)F)ccc1OCCO` (stereo partly drawn) [Example 13], the pEC50 is less than 6.70.

With `COc1cc(C(=O)NC[C@](O)(c2cc3c(c(-c4ccc(F)cc4)n2)OC[C@]3(C)CNC2CC2)C(F)(F)F)ccc1OC1CC1` [Example 17], the negative-log EC50 (pEC50) is greater than 6.70.

Turning to `COc1cc(C(=O)NC[C@](O)(c2cc3c(c(-c4ccc(F)cc4)n2)OC[C@]3(C)CNCC2CC2)C(F)(F)F)ccc1OC1CC1` [Example 18], the pEC50 was greater than 6.70.

Take `COc1cc(C(=O)NC[C@](O)(c2cc3c(c(-c4ccc(F)cc4)n2)OC[C@]3(C)CN[C@@H](C)C2CC2)C(F)(F)F)ccc1OC1CC1` [Example 19]: the pEC50 was greater than 6.70.

Turning to `COc1cc(C(=O)NC[C@](O)(c2cc3c(c(-c4ccc(F)cc4)n2)OC[C@]3(C)CNC2CC2)C(F)(F)F)cc2cccnc12` [Example 23], the pEC50 is greater than 6.70.

Regarding `COc1cc(C(=O)NCC(O)(c2cc3c(c(-c4ccc(F)cc4)n2)OC[C@]3(C)CN[C@@H](C)C2CC2)C(F)(F)F)cc2cccnc12` (stereo partly drawn) [Example 24], the pEC50 is greater than 6.70.

For the compound `COc1cc(C(=O)NCC(O)(c2cc3c(c(-c4ccc(F)cc4)n2)OC[C@]3(C)CNCC2CC2)C(F)(F)F)cc2cccnc12` (stereo partly drawn) [Example 25], the negative logarithm of the EC50 (pEC50) was greater than 6.70.

As for `COc1cc(C(=O)NC[C@](O)(c2cc3c(c(-c4ccc(F)cc4)n2)OC[C@]3(C)C(N)=O)C(F)(F)F)cc2cccnc12` [Example 28], the negative logarithm of the EC50 (pEC50) is greater than 6.70.

For the compound `C[C@]1(CNCC2CC2)COc2c1cc([C@@](O)(CNC(=O)c1ccc(OC(F)F)c(OCC3CC3)c1)C(F)(F)F)nc2-c1ccc(F)cc1` [Example 33], the pEC50 is less than 6.70.

For `C[C@]1(CNCC2CC2)COc2c1cc([C@@](O)(CNC(=O)c1ccc3c(c1)OCCN3)C(F)(F)F)nc2-c1ccc(F)cc1` [Example 38], the pEC50 is less than 6.70.

Turning to `C[C@]1(CNCC2CC2)COc2c1cc([C@@](O)(CNC(=O)c1ccc3[nH]c(=O)[nH]c3c1)C(F)(F)F)nc2-c1ccc(F)cc1` [Example 40], the pEC50 was less than 6.70.

For `COc1cc(C(=O)NC[C@](O)(c2cc3c(c(-c4ccc(F)cc4)n2)OC[C@]3(C)CNCC2CC2)C(F)(F)F)ccc1OC(F)F` [Example 41], the pEC50 was less than 6.70.

As for `C[C@]1(CNCC2CC2)COc2c1cc([C@@](O)(CNC(=O)c1ccc(OC(F)F)c(O)c1)C(F)(F)F)nc2-c1ccc(F)cc1` [Example 42], the pEC50 was less than 6.70.

For the compound `COc1cc(C(=O)NC[C@](O)(c2cc3c(c(-c4ccc(F)cc4)n2)OC[C@]3(C)C(=O)NC2CCCC2)C(F)(F)F)cc2cccnc12` [Example 47], the negative logarithm of the EC50 (pEC50) was less than 6.70.

For `COc1cc(C(=O)NC[C@](O)(c2cc3c(c(-c4ccc(F)cc4)n2)OC[C@]3(C)C(=O)NCC(F)(F)F)C(F)(F)F)cc2cccnc12` [Example 48], the pEC50 was greater than 6.70.

Consider `COc1cc(C(=O)NC[C@](O)(c2cc3c(c(-c4ccc(F)cc4)n2)OC[C@]3(C)C(=O)NCC2CC2)C(F)(F)F)cc2cccnc12` [Example 50], for which the pEC50 is greater than 6.70.

Turning to `COc1cc(C(=O)NC[C@](O)(c2cc3c(c(-c4ccc(F)cc4)n2)OC[C@]3(C)C(=O)NC2(C(F)(F)F)CC2)C(F)(F)F)cc2cccnc12` [Example 51], the pEC50 was less than 6.70.

Turning to `COc1cc(C(=O)NC[C@](O)(c2cc3c(c(-c4ccc(F)cc4)n2)OC[C@]3(C)C(=O)NC23CC(C2)C3)C(F)(F)F)cc2cccnc12` [Example 54], the pEC50 is greater than 6.70.

With `COc1cc(C(=O)NC[C@](O)(c2cc3c(c(-c4ccc(F)cc4)n2)OC[C@]3(C)C(=O)NC23CC(F)(C2)C3)C(F)(F)F)cc2cccnc12` [Example 55], the pEC50 is greater than 6.70.

For the compound `COc1cc(C(=O)NC[C@](O)(c2cc3c(c(-c4ccc(F)cc4)n2)OC[C@]3(C)C(=O)NC2(C)COC2)C(F)(F)F)cc2cccnc12` [Example 57], the pEC50 is greater than 6.70.

Consider `COc1cc(C(=O)NC[C@](O)(c2cc3c(c(-c4ccc(F)cc4)n2)OC[C@]3(C)C(=O)NC2(C)CC(F)(F)C2)C(F)(F)F)cc2cccnc12` [Example 58], for which the pEC50 is less than 6.70.

Take `C[C@]1(C(N)=O)COc2c1cc([C@@](O)(CNC(=O)c1cc(OC(F)F)c3ncccc3c1)C(F)(F)F)nc2-c1ccc(F)cc1` [Example 59]: the pEC50 was greater than 6.70.

`COc1cc(C(=O)NC[C@](O)(c2cc3c(c(-c4ccc(F)cc4)n2)OC[C@]3(C)C(N)=O)C(F)(F)F)cc2c1NC(=O)CC2` [Example 60]: the pEC50 is greater than 6.70.

In the case of `C[C@]1(C(N)=O)COc2c1cc([C@@](O)(CNC(=O)c1cc(F)c3ncccc3c1)C(F)(F)F)nc2-c1ccc(F)cc1` [Example 63], the pEC50 was greater than 6.70.

As to `C[C@]1(C(N)=O)COc2c1cc([C@@](O)(CNC(=O)c1cc(C(F)(F)F)c3ncccc3c1)C(F)(F)F)nc2-c1ccc(F)cc1` [Example 64], the pEC50 is greater than 6.70.

For `C[C@]1(C(N)=O)COc2c1cc([C@@](O)(CNC(=O)c1ccc3c(c1)OC(F)(F)O3)C(F)(F)F)nc2-c1ccc(F)cc1` [Example 66], the negative-log EC50 (pEC50) is less than 6.70.

With `COc1cc(C(=O)NC[C@](O)(c2cc3c(c(-c4ccc(F)cc4)n2)OC[C@]3(C)C(N)=O)C(F)(F)F)ccc1OC(F)F` [Example 67], the pEC50 was greater than 6.70.

Consider `COc1cc(C(=O)NC[C@](O)(c2cc3c(c(-c4ccc(F)cc4)n2)OC[C@]3(C)C(N)=O)C(F)(F)F)ccc1OCCF` [Example 68], for which the pEC50 was greater than 6.70.

Turning to `C[C@]1(C(N)=O)COc2c1cc([C@@](O)(CNC(=O)c1ccc(OC(F)F)c(OC(F)F)c1)C(F)(F)F)nc2-c1ccc(F)cc1` [Example 70], the pEC50 was greater than 6.70.

A word on the pEC50: it is the negative decadic logarithm of the EC50, by convention in mol/L.
